These results are taken from patent US20250263496A1, “Neutrophil-Activating Therapy for the Treatment of Cancer” (The Board of Trustees of the Leland Stanford Junior …, priority 2024, published 2025).

One experiment concerns B16 cells. The experiment in a line: Mouse in vitro cytotoxicity (EuTDA), B16 cells co-cultured with neutrophils. Format: cell-based. The conditions noted are these: neutrophils from treated tumors stimulated with neutrophil-activating therapy. The protocol: B16 tumors were treated by intratumoral injection of TNF+anti-CD40+anti-gp75 and harvested 12 hours post-treatment. Tumors were dissected away from any surrounding fat, minced, and digested in 5 mg/ml collagenase IV (Worthington) plus 0.1 mg/ml DNase I (Sigma) with continuous mixing by magnetic stir bars for 20 minutes at 37° C. in RPMI-1640 (Gibco) with 2% FBS. Following digestion, tissue was mashed through a […] cell strainer (Falcon) and washed. For some studies, bone marrow was harvested by grinding bones from tumor-naive untreated mice in a mortar and pestle and mashing through a […] strainer (Falcon). Neutrophils were isolated from tumor and bone marrow samples with the MojoSort Mouse Ly6G Selection Kit (BioLegend), according to the manufacturer's instructions, and used in the cytotoxicity assay.
Cytotoxicity assays were conducted using the EuTDA assay from the DELFIA TRF cytotoxicity kit (PerkinElmer) according to the manufacturer's instructions. Briefly, B16 cells were labeled for 10 minutes with BATDA, and 5×10^3 labeled cells were added per well to a 96 well V-bottom plate in RPMI-1640. Neutrophils were added at a ratio of 10:1 unless otherwise stated. All co-cultures were conducted in the presence of TNF (10 ng/ml), anti-CD40 (1 μg/ml), anti-gp75 (1 μg/ml), and 10% active mouse C57BL/6 complement serum (Innovative Research), except where indicated otherwise. Mouse C57BL/6 complement serum was heat-inactivated for 40 minutes at 57° C. where inactivation is specified. In some experiments, mouse IgG2a isotype control (1 μg/ml, isotype control for anti-gp75, clone C1.18.4, Bio X Cell), anti-mouse CD16/CD32 (10 μg/ml, clone 2.4G2, Bio X Cell), recombinant mouse C5a (50 nM, R&D Systems), anti-C5a (25 μg/ml, clone 295108, R&D Systems), rat IgG2a isotype control (25 μg/ml, isotype control for anti-C5a, clone 2A3, Bio X Cell), anti-C5AR1 (5 μg/ml, clone 20/70, BioLegend), rat IgG2b isotype control (5 μg/ml, isotype control for anti-C5AR1, clone LTF-2, Bio X Cell), SC57461A (10 μM, Cayman Chemical), CP-105696 (1 μM, Sigma), topiroxostat (10 μM, MedChem Express), or DMSO (vehicle for SC57461A, CP-105696, and topiroxostat) were added to the wells with the B16 and neutrophils. After 4 hours of co-culture at 37° C., supernatant was taken from the wells, Europium solution was added, and TDA released from lysed B16 cells was detected by […] on a Victor X4 fluorescence microplate reader (PerkinElmer). Percent maximal lysis was determined by calculating the specific release of TDA using the formula: (experimental release−spontaneous release)/(maximum release −spontaneous release), where spontaneous release was determined by wells containing no neutrophils and maximum release was determined by wells with lysis buffer added.
For trogocytosis studies investigating transfer of tumor-binding antibody, anti-gp75 labeled with AF647 (clone TA99, Novus Biologicals) was used in place of unlabeled anti-gp75. For studies investigating transfer of B16 cell membrane, DiD′ Solid (ThermoFisher Scientific) was reconstituted in DMSO at 10 mg/ml and diluted to a working solution of 5 μg/ml in serum-free DMEM. B16 cells were labeled in this solution for 20 minutes at 37° C. at 1×10^6 cells/ml. Labeled B16 was washed 3 times in warm media before being added to the co-culture wells with the neutrophils. Following co-culture, flow cytometry was used to identify DiD signal in neutrophils.

In a further experiment the test system is neutrophils. The experiment can be described thus: Flow cytometry of neutrophils in B16 tumors and blood. Format: in vivo, mouse. As to conditions: agent given prior to neutrophil-activating therapy. The protocol: Tumors were digested with collagenase IV and DNase I as described above. Following digestion, tissue was mashed through a […] cell strainer (Falcon), washed, red blood cells were lysed with ACK buffer for 1 minute, and cells were washed again prior to antibody staining. Blood was harvested into PBS plus 20 mM EDTA by cardiac puncture or retro-orbital bleed, lysed in ACK buffer for 5 minutes, and washed prior to antibody staining. Bone marrow was harvested by grinding the femur and tibia in a mortar and pestle and mashing through a […] strainer (Falcon), or by flushing femurs with a syringe and needle, then lysed in ACK buffer for 5 minutes and washed prior to antibody staining. Spleens were harvested by mashing through a […] cell strainer (Falcon), then lysed in ACK buffer for 5 minutes and washed prior to antibody staining.
Live cells were stained with antibodies on ice for 20 minutes in FACS buffer (HBSS 1% BSA 5 mM EDTA) with Brilliant Stain Buffer Plus (BD). Following staining, cells were washed twice in FACS buffer and resuspended in 1 μg/ml DAPI plus AccuCount Fluorescent Particles (Spherotech) for absolute count determination. In some experiments, live cells were stained with Live/Dead Fixable Blue Stain (Invitrogen) in HBSS on ice for 20 minutes prior to antibody staining, and DAPI was not used. […]

Consider `N#Cc1cc(-c2n[nH]c(-c3ccncc3)n2)ccn1` [topiroxostat], for which the “effect of agent on ex vivo killing of tumor cells by neutrophils” value with B16 cells is listed as “inhibited ex vivo tumor cell killing”. For the same compound, the “effect of agent on treatment-induced neutrophil tumor infiltration” value in the experiment with neutrophils is on record as “did not prevent neutrophil infiltration”.
